18 compounds from US7300939B2, “Substituted 1-propiolylpiperazine compounds, their preparation and use” (Gruenenthal GmbH, priority 2005, dated 2007) can be followed below.

What is called IC50 is the midpoint of a concentration-inhibition curve. A higher IC50 goes with a need for much substance.

T1 sequence (I3LUI7 19-1212): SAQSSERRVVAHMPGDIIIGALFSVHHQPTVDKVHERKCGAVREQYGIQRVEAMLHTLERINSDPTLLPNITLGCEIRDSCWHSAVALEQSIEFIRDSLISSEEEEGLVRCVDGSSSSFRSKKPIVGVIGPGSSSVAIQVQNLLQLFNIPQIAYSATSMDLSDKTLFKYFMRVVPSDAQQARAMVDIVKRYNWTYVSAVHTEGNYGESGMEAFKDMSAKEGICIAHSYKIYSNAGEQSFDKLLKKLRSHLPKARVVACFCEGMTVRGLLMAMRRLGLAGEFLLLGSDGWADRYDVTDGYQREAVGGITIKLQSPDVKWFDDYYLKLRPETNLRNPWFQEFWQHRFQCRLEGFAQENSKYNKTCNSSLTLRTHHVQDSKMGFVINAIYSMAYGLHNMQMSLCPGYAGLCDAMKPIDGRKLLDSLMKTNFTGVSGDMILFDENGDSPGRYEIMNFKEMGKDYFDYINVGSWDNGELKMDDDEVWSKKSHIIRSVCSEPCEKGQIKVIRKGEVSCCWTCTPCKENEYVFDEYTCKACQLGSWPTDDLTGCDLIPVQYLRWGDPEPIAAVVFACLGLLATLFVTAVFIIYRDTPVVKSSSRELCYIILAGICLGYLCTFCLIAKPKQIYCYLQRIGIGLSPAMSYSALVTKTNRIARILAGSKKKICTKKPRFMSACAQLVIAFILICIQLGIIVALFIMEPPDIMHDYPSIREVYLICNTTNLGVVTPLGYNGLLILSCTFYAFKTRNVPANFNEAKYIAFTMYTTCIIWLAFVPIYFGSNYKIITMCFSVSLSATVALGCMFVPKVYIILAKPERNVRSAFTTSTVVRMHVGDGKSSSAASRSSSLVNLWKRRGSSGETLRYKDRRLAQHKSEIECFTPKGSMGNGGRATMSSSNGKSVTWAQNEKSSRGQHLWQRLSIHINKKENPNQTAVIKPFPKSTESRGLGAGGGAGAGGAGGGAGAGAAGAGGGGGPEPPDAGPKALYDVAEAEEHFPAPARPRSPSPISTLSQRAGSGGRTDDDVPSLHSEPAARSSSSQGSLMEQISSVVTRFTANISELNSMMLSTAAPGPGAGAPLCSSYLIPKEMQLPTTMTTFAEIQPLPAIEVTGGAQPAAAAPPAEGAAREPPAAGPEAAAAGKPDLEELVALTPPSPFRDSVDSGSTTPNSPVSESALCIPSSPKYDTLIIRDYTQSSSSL

The first test has as its target T1, mGluR5 receptor (Sus scrofa, UniProt I3LUI7).
T1 construct: from tissue; host or cells: pig brain halves without medulla, cerebellum and pons
As to the kind of experiment: [3H]-MPEP binding in the mGluR5 receptor binding assay (pig brain homogenate). The settings on record: 10 μM; pig brain homogenate; 5 nM [3H]-MPEP. On the procedure: I. Method the Determination of the Inhibition of the [^3H]-MPEP Binding in the mGluR5 Receptor Binding Assay
Pig brain homogenate is prepared by homogenization (Polytron PT 3000, Kinematica AG, 10,000 revolutions per minute 90 seconds) of pig brain halves without medulla, cerebellum and pons in a buffer solution having a pH of 8.0 (30 mM of hepes, Sigma, order no. H3375+1 tablet of Complete to 100 ml, Roche Diagnostics, order no. 1836145) in a ratio of 1:20 (brain weight/volume) and differential centrifugation at 900×g and 40,000×g. In each case 450 μg of protein from brain homogenate are incubated with 5 nM [^3H]-MPEP (Tocris, order no. R1212) (MPEP=2-methyl-6-(3-methoxyphenyl)ethynylpyridine) and the compounds to be investigated (10 μM in the test) in a buffer solution (as above) in 250 μl incubation batches in 96-well microtiter plates at room temperature 60 min.
Thereafter, the batches are filtered with the aid of a Brandel cell harvester (Brandel, Robotic 9600 model) onto Unifilter plates with glass fiber filter mats (Perkin Elmer, order no. 6005177) and then rinsed with buffer solution (as above) 3 times with 250 μl per sample each time. The filter plates are then dried 60 min at 55° C. 30 μl Ultima Gold™ scintillator (Packard BioScience, order no. 6013159) are subsequently added per well and, after 3 hours, the samples are measured on a β-counter (Mikrobeta, Perkin Elmer). The non-specific binding is determined by addition of 10 μM of MPEP (Tocris, order no. 1212).
On to `Nc1ccc(C#CC(=O)N2CCN(c3nccs3)CC2)cc1` [Example AAA8, 4-(Thiazol-2-yl)-1-(3-(4-aminophenyl)propiolyl)piperazine], for which the “mGluR5-receptor (% inhibition 10 μM) in pigs” value worked out at 65%.
As for `O=C(C#Cc1ccsc1)N1CCN(c2nccs2)CC1` [Example AAA11, 4-(Thiazol-2-yl)-1-(3-(3-thienyl)propiolyl)piperazine], the “mGluR5-receptor (% inhibition 10 μM) in pigs” value stood at 52%.
In the case of `COc1ccccc1C#CC(=O)N1CCN(c2nccs2)CC1` [Example AAA12, 4-(Thiazol-2-yl)-1-(3-(2-methoxyphenyl)propiolyl)piperazine], the “mGluR5-receptor (% inhibition 10 μM) in pigs” value was found to be 34%.
With `COc1cccc(C#CC(=O)N2CCN(c3nccs3)CC2)c1` [Example AAA13, 4-(Thiazol-2-yl)-1-(3-(3-methoxyphenyl)propiolyl)piperazine], the “mGluR5-receptor (% inhibition 10 μM) in pigs” value came out at 87%.
With `COc1ccc(C#CC(=O)N2CCN(c3nccs3)CC2)cc1` [Example AAA14, 4-(Thiazol-2-yl)-1-(3-(4-methoxyphenyl)propiolyl)piperazine], the “mGluR5-receptor (% inhibition 10 μM) in pigs” value is on record as 34%.
`N#Cc1ccccc1C#CC(=O)N1CCN(c2nccs2)CC1` [Example AAA15, 4-(Thiazol-2-yl)-1-(3-(2-cyanophenyl)propiolyl)piperazine]: the “mGluR5-receptor (% inhibition 10 μM) in pigs” value came out at 54%.
Same read-out and setting: with `N#Cc1cccc(C#CC(=O)N2CCN(c3nccs3)CC2)c1` [Example AAA16, 4-(Thiazol-2-yl)-1-(3-(3-cyanophenyl)propiolyl)piperazine] the figure was 93%; with `O=C(C#Cc1cccc(F)c1)N1CCN(c2nccs2)CC1` [Example AAA22, 4-(Thiazol-2-yl)-1-(3-(3-fluorophenyl)propiolyl)piperazine], 86%.
On to `O=C(C#Cc1ccccc1Cl)N1CCN(c2nccs2)CC1` [Example AAA23, 4-(Thiazol-2-yl)-1-(3-(2-chlorophenyl)propiolyl)piperazine], for which the “mGluR5-receptor (% inhibition 10 μM) in pigs” value worked out at 70%.
Consider `O=C(C#Cc1cccc([N+](=O)[O-])c1)N1CCN(c2nccs2)CC1` [Example AAA28, 4-(Thiazol-2-yl)-1-(3-(3-nitrophenyl)propiolyl)piperazine], for which the “mGluR5-receptor (% inhibition 10 μM) in pigs” value worked out at 82%.
In the case of `O=Cc1cccc(C#CC(=O)N2CCN(c3nccs3)CC2)c1` [Example AAA30, 4-(Thiazol-2-yl)-1-(3-(3-formylphenyl)propiolyl)piperazine], the “mGluR5-receptor (% inhibition 10 μM) in pigs” value turned out to be 91%.
Consider `O=C(C#Cc1ccccn1)N1CCN(c2nccs2)CC1` [Example AAA32, 4-(Thiazol-2-yl)-1-(3-pyrid-2-ylpropiolyl)piperazine], for which the “mGluR5-receptor (% inhibition 10 μM) in pigs” value is given as 57%.
As to `O=C(C#Cc1cccnc1)N1CCN(c2nccs2)CC1` [Example AAA33, 4-(Thiazol-2-yl)-1-(3-pyrid-3-ylpropiolyl)piperazine], the “mGluR5-receptor (% inhibition 10 μM) in pigs” value was determined as 50%.
Turning to `O=C(C#Cc1ccncc1)N1CCN(c2nccs2)CC1` [Example AAA34, 4-(Thiazol-2-yl)-1-(3-pyrid-4-ylpropiolyl)piperazine], the “mGluR5-receptor (% inhibition 10 μM) in pigs” value was 71%.

Still in this test, the particulars now being: Table II; unit inferred.
Turning to `O=C(C#Cc1ccc2[nH]ccc2c1)N1CCN(c2nccs2)CC1` [Example AAA9, 4-(Thiazol-2-yl)-1-(3-(indol-5-yl)propiolyl)piperazine], the IC50 came out at 700 nM.
On to `O=C(C#Cc1cccs1)N1CCN(c2nccs2)CC1` [Example AAA10, 4-(Thiazol-2-yl)-1-(3-(2-thienyl)propiolyl)piperazine], for which the IC50 stood at 980 nM. This IC50 and that of the compound before are within 1.5-fold of each other.
`O=C(C#Cc1ccccc1F)N1CCN(c2nccs2)CC1` [Example AAA21, 4-(Thiazol-2-yl)-1-(3-(2-fluorophenyl)propiolyl)piperazine] gave an IC50 of 830 nM.
Still for that read-out and setting: in the case of `C=Cc1cccc(C#CC(=O)N2CCN(c3nccs3)CC2)c1` [Example AAA31, 4-(Thiazol-2-yl)-1-(3-(3-ethenylphenyl)propiolyl)piperazine] it was 38 nM.
